According to the NIST ThermoML archive (doi:10.1021/acs.jced.8b00591):

Assay: xn = mol fraction of the nth substance listed
Settings: 101.3 kPa, Liquid; for viscosity: Falling or rolling sphere viscometry; for mass density: Vibrating tube method

CCCC[n+]1ccn(C)c1.O=S(=O)([N-]S(=O)(=O)C(F)(F)F)C(F)(F)F + COC(=O)OC
Settings	mass density [kg/m3]	viscosity [mPa·s]
288.15 K, x1 = 0.0898	1178.03	1.605
288.15 K, x1 = 0.1882	1250.71	3.207
288.15 K, x1 = 0.2749	1295.36	5.396
288.15 K, x1 = 0.3754	1334.26	9.186
288.15 K, x1 = 0.472	1362.15	14.3
288.15 K, x1 = 0.5745	1385.8	22.53
288.15 K, x1 = 0.673	1404.16	32.06
288.15 K, x1 = 0.7799	1419.88	44.52
288.15 K, x1 = 0.8948	1434.65	61.53
288.15 K, x1 = 1	1445.66	78.02
293.15 K, x1 = 0.0898	1172.07	1.473
293.15 K, x1 = 0.1882	1245.1	2.886
293.15 K, x1 = 0.2749	1289.95	4.762
293.15 K, x1 = 0.3754	1329.02	7.93
293.15 K, x1 = 0.472	1357.02	12.12
293.15 K, x1 = 0.5745	1380.77	18.87
293.15 K, x1 = 0.673	1399.14	26.3
293.15 K, x1 = 0.7799	1414.97	35.81
293.15 K, x1 = 0.8948	1429.79	48.74
293.15 K, x1 = 1	1440.84	61.32
298.15 K, x1 = 0.0898	1166.07	1.365
298.15 K, x1 = 0.1882	1239.48	2.611
298.15 K, x1 = 0.2749	1284.55	4.235
298.15 K, x1 = 0.3754	1323.78	6.922
298.15 K, x1 = 0.472	1351.9	10.39
298.15 K, x1 = 0.5745	1375.74	16.3
298.15 K, x1 = 0.673	1394.18	21.86
298.15 K, x1 = 0.7799	1410.07	29.38
298.15 K, x1 = 0.8948	1424.93	39.46
298.15 K, x1 = 1	1436.01	48.93
303.15 K, x1 = 0.0898	1160.05	1.263
303.15 K, x1 = 0.1882	1233.85	2.376
303.15 K, x1 = 0.2749	1279.14	3.797
303.15 K, x1 = 0.3754	1318.55	6.1
303.15 K, x1 = 0.472	1346.78	8.998
303.15 K, x1 = 0.5745	1370.71	14
303.15 K, x1 = 0.673	1389.23	18.59
303.15 K, x1 = 0.7799	1405.18	24.46
303.15 K, x1 = 0.8948	1420.08	32.86
303.15 K, x1 = 1	1431.21	39.84
308.15 K, x1 = 0.0898	1154.02	1.173
308.15 K, x1 = 0.1882	1228.22	2.176
308.15 K, x1 = 0.2749	1273.73	3.428
308.15 K, x1 = 0.3754	1313.32	5.404
308.15 K, x1 = 0.472	1341.67	7.885
308.15 K, x1 = 0.5745	1365.7	11.98
308.15 K, x1 = 0.673	1384.29	16.17
308.15 K, x1 = 0.7799	1400.31	20.58
308.15 K, x1 = 0.8948	1415.26	27.73
308.15 K, x1 = 1	1426.43	32.91
313.15 K, x1 = 0.0898	1147.98	1.095
313.15 K, x1 = 0.1882	1222.58	2.002
313.15 K, x1 = 0.2749	1268.32	3.113
313.15 K, x1 = 0.3754	1308.09	4.822
313.15 K, x1 = 0.472	1336.58	6.959
313.15 K, x1 = 0.5745	1360.7	10.3
313.15 K, x1 = 0.673	1379.37	14.01
313.15 K, x1 = 0.7799	1395.44	17.54
313.15 K, x1 = 0.8948	1410.45	23.58
313.15 K, x1 = 1	1421.66	27.56
318.15 K, x1 = 0.0898	1141.93	1.022
318.15 K, x1 = 0.1882	1216.94	1.849
318.15 K, x1 = 0.2749	1262.92	2.837
318.15 K, x1 = 0.3754	1302.88	4.332
318.15 K, x1 = 0.472	1331.49	6.189
318.15 K, x1 = 0.5745	1355.71	8.913
318.15 K, x1 = 0.673	1374.45	12.1
318.15 K, x1 = 0.7799	1390.59	15.2
318.15 K, x1 = 0.8948	1405.67	19.93
318.15 K, x1 = 1	1416.91	23.33
323.15 K, x1 = 0.0898	1135.85	0.958
323.15 K, x1 = 0.1882	1211.3	1.719
323.15 K, x1 = 0.2749	1257.51	2.6
323.15 K, x1 = 0.3754	1297.67	3.943
323.15 K, x1 = 0.472	1326.4	5.54
323.15 K, x1 = 0.5745	1350.73	7.757
323.15 K, x1 = 0.673	1369.55	10.53
323.15 K, x1 = 0.7799	1385.74	13.21
323.15 K, x1 = 0.8948	1400.88	17.01
323.15 K, x1 = 1	1412.17	19.97
328.15 K, x1 = 0.0898	1129.76	0.899
328.15 K, x1 = 0.1882	1205.65	1.588
328.15 K, x1 = 0.2749	1252.1	2.394
328.15 K, x1 = 0.3754	1292.46	3.59
328.15 K, x1 = 0.472	1321.33	4.994
328.15 K, x1 = 0.5745	1345.75	6.772
328.15 K, x1 = 0.673	1364.66	9.191
328.15 K, x1 = 0.7799	1380.9	11.54
328.15 K, x1 = 0.8948	1396.12	14.93
328.15 K, x1 = 1	1407.45	17.41

CCn1cc[n+](C)c1.O=S(=O)([N-]S(=O)(=O)C(F)(F)F)C(F)(F)F + COC(=O)OC
Settings	mass density [kg/m3]	viscosity [mPa·s]
288.15 K, x1 = 0.0989	1199.15	1.579
288.15 K, x1 = 0.1983	1282.85	2.913
288.15 K, x1 = 0.2973	1342.57	4.862
288.15 K, x1 = 0.3958	1387.69	7.561
288.15 K, x1 = 0.496	1423.97	11.21
288.15 K, x1 = 0.5954	1452.55	16.89
288.15 K, x1 = 0.6967	1476.87	22.56
288.15 K, x1 = 0.7982	1497.52	30.07
288.15 K, x1 = 0.9004	1514.5	38.55
288.15 K, x1 = 1	1528.55	49.41
293.15 K, x1 = 0.0989	1193.1	1.451
293.15 K, x1 = 0.1983	1277.11	2.637
293.15 K, x1 = 0.2973	1337.02	4.332
293.15 K, x1 = 0.3958	1382.28	6.635
293.15 K, x1 = 0.496	1418.62	9.698
293.15 K, x1 = 0.5954	1447.28	14.58
293.15 K, x1 = 0.6967	1471.62	19.02
293.15 K, x1 = 0.7982	1492.37	25.12
293.15 K, x1 = 0.9004	1509.39	31.87
293.15 K, x1 = 1	1523.47	40.36
298.15 K, x1 = 0.0989	1187.03	1.348
298.15 K, x1 = 0.1983	1271.35	2.4
298.15 K, x1 = 0.2973	1331.47	3.884
298.15 K, x1 = 0.3958	1376.85	5.878
298.15 K, x1 = 0.496	1413.28	8.484
298.15 K, x1 = 0.5954	1442.02	12.53
298.15 K, x1 = 0.6967	1466.42	16.66
298.15 K, x1 = 0.7982	1487.23	21.25
298.15 K, x1 = 0.9004	1504.28	26.71
298.15 K, x1 = 1	1518.39	33.52
303.15 K, x1 = 0.0989	1180.95	1.25
303.15 K, x1 = 0.1983	1265.59	2.195
303.15 K, x1 = 0.2973	1325.91	3.507
303.15 K, x1 = 0.3958	1371.44	5.241
303.15 K, x1 = 0.496	1407.96	7.472
303.15 K, x1 = 0.5954	1436.78	10.8
303.15 K, x1 = 0.6967	1461.24	14.52
303.15 K, x1 = 0.7982	1482.09	18.37
303.15 K, x1 = 0.9004	1499.19	22.66
303.15 K, x1 = 1	1513.34	28.35
308.15 K, x1 = 0.0989	1174.86	1.162
308.15 K, x1 = 0.1983	1259.83	2.019
308.15 K, x1 = 0.2973	1320.35	3.177
308.15 K, x1 = 0.3958	1366.03	4.706
308.15 K, x1 = 0.496	1402.66	6.64
308.15 K, x1 = 0.5954	1431.55	9.382
308.15 K, x1 = 0.6967	1456.07	12.62
308.15 K, x1 = 0.7982	1476.98	16.22
308.15 K, x1 = 0.9004	1494.12	19.42
308.15 K, x1 = 1	1508.3	24.15
313.15 K, x1 = 0.0989	1168.75	1.086
313.15 K, x1 = 0.1983	1254.07	1.865
313.15 K, x1 = 0.2973	1314.81	2.904
313.15 K, x1 = 0.3958	1360.63	4.247
313.15 K, x1 = 0.496	1397.36	5.946
313.15 K, x1 = 0.5954	1426.34	8.189
313.15 K, x1 = 0.6967	1450.93	10.96
313.15 K, x1 = 0.7982	1471.88	14.22
313.15 K, x1 = 0.9004	1489.06	17.21
313.15 K, x1 = 1	1503.28	20.76
318.15 K, x1 = 0.0989	1162.63	1.016
318.15 K, x1 = 0.1983	1248.3	1.729
318.15 K, x1 = 0.2973	1309.26	2.661
318.15 K, x1 = 0.3958	1355.23	3.831
318.15 K, x1 = 0.496	1392.08	5.358
318.15 K, x1 = 0.5954	1421.14	7.249
318.15 K, x1 = 0.6967	1445.79	9.578
318.15 K, x1 = 0.7982	1466.8	12.43
318.15 K, x1 = 0.9004	1484.02	15.16
318.15 K, x1 = 1	1498.27	17.9
323.15 K, x1 = 0.0989	1156.5	0.954
323.15 K, x1 = 0.1983	1242.54	1.608
323.15 K, x1 = 0.2973	1303.72	2.452
323.15 K, x1 = 0.3958	1349.85	3.512
323.15 K, x1 = 0.496	1386.81	4.857
323.15 K, x1 = 0.5954	1415.92	6.332
323.15 K, x1 = 0.6967	1440.67	8.381
323.15 K, x1 = 0.7982	1461.74	10.9
323.15 K, x1 = 0.9004	1479	13.29
323.15 K, x1 = 1	1493.28	15.93
328.15 K, x1 = 0.0989	1150.34	0.898
328.15 K, x1 = 0.1983	1236.76	1.501
328.15 K, x1 = 0.2973	1298.19	2.268
328.15 K, x1 = 0.3958	1344.47	3.224
328.15 K, x1 = 0.496	1381.55	4.421
328.15 K, x1 = 0.5954	1410.75	5.588
328.15 K, x1 = 0.6967	1435.57	7.456
328.15 K, x1 = 0.7982	1456.69	9.61
328.15 K, x1 = 0.9004	1474	11.68
328.15 K, x1 = 1	1488.31	14.26
